From article PMC10641069, “Intra- and inter-molecular regulation by intrinsically-disordered regions governs PUF protein RNA binding” (Nature Communications, 2023)
Substitutions are numbered along the chain they refer to. “Also recorded” adds a separate entry of the source.

T1: FBF-2 RBD+CT;LST-1 B peptide (Caenorhabditis elegans;Caenorhabditis …, UniProt Q09312;P91820 164-632;67-98, |)
T1 sequence 1: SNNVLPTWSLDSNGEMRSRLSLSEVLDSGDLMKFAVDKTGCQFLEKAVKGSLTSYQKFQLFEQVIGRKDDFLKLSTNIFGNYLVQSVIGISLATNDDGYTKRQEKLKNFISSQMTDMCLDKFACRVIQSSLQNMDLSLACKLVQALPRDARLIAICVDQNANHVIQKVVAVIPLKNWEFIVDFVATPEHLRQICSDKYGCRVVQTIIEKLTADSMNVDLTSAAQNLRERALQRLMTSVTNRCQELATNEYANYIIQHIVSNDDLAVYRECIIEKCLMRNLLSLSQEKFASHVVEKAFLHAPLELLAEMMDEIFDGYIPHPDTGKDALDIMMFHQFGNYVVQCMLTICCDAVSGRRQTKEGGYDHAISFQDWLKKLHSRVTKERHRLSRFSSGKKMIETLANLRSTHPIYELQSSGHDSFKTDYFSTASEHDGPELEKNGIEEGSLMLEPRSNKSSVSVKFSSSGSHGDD
T1 sequence 2: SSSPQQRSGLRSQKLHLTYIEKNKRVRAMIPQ

T2: FBF-2 RBD+CT L610A;LST-1 B peptide (Caenorhabditis elegans;Caenorhabditis …, UniProt Q09312;P91820 164-632;67-98, L610A|)
T2 sequence 1: T1 sequence 1 with L447A
T2 sequence 2: T1 sequence 2


Legend:
gld-1 FBEa RNA [1] = test: Electrophoretic mobility shift assay (EMSA), RNA binding; set-up: species or system C. elegans; conditions: LST-1 B 50 μM
gld-1 FBEa RNA [2] = conditions: LST-1 peptide with FBF-2 RBD (no CT); cited from earlier work
Source text: LST-1 is expressed in GSCs in response to signaling from the stem cell niche. The LST-1 protein is largely unstructured (Fig. 1b), including an N-terminal region that is sufficient for self-renewal of GSCs[22]. This LST-1 IDR region harbors two PUF Interacting Motifs (PIMs), LST-1 A and LST-1 B, that interact with FBF-2, each with a KxxL sequence[17],[22]. Crystal structures of FBF-2 bound to LST-1 A or B identify a seven-residue core region, including the KxxL sequence, that binds to FBF-2 with similar peptide backbone structure[17],[18]. The two LST-1 PIMs are biologically redundant for ... || If the FBF-2 CT reduces RNA-binding affinity (Fig. 3b) and competes with LST-1 for binding (Fig. 2c, d), why then does FBF-2 depend on LST-1 to repress RNAs in nematodes? To address this question, we explored RNA-binding affinities of FBF-2 RBD + CT in the presence of either LST-1 A or LST-1 B (Fig. 6; Supplementary Table 3). In contrast to results with FBF-2 RBD alone[17],[18], both LST-1 A and LST-1 B increased the RNA-binding affinity of FBF-2 RBD + CT.

[3] = target: T1, FBF-2 RBD+CT;LST-1 B peptide; test: EMSA; 50 uM LST-1 B; EMSA: FBF-2 in 20 mM HEPES pH 7.4, 150 mM NaCl, 0.5 mM TCEP mixed 1:1 with 5 nM final RNA in 10 mM HEPES pH 7.4, 0.01% Tween 20, 0.1 mg/ml BSA, 0.1 mg/ml yeast; conditions: protein: recombinant;recombinant; tags: none (His6-SUMO removed with Ulp1);none (His6-SUMO removed with Ulp1); copies: 1;1; label: 3'-Cy5
[4] = target: T2, FBF-2 RBD+CT L610A;LST-1 B peptide; test: as above; conditions: protein: recombinant;recombinant; tags: none (His6-SUMO removed with Ulp1);none (His6-SUMO removed with Ulp1); copies: 1;1; label: 3'-Cy5

| Molecule | effect on RNA-binding affinity (gld-1 FBEa RNA [1]; of FBF-2 RBD + CT L610A) | effect on RNA-binding affinity (gld-1 FBEa RNA [1]; of FBF-2 RBD + CT Y479A) | effect on RNA-binding affinity of FBF-2 RBD (gld-1 FBEa RNA [2]) | Kd [3] [nM] | Kd [4] [nM] |
| --- | --- | --- | --- | --- | --- |
| LST-1 B: LST-1 B peptide, residues 67–98, expressed in E. coli (SSSPQQRSGLRSQKLHLTYIEKNKRVRAMIPQ; left off: His6-SUMO, N-terminal, cleaved) | little to no effect | no effect | decreased the RNA-binding affinity; also recorded: decreases RNA-binding affinity | – | – |
| AUCAUGUGCCAUAC (ssRNA) [gld-1 FBEa RNA (EMSA)] | – | – | – | 68 ± 21 | 82 ± 18 |
